Source: ChEMBL document CHEMBL1136064, “The synthesis and characterization of BMS-204352 (MaxiPost) and related 3-fluorooxindoles as openers of maxi-K potassium channels” (Bioorg Med Chem Lett, 2002)
Where “and” joins values, the source holds several entries; their conditions need not be identical. Identical values can stand only once. Blank lines part the entries; values can stand above or below the compound they belong to.

Tests used:
[1] = target: Calcium-activated potassium channel subunit alpha-1 KCNMA1 (Homo sapiens) (UniProt Q12791); assay: Evaluation of maxi-K opening in Xenopus laevis oocytes injected with Hslo1 channels as percent of control current at a concentration of 20 uM; settings: Oocyte
[2] = Evaluated for Volume of distribution after iv administration of 5 mg/kg to male Sprague-Dawley rats; format: ADME, organism-based; parameters: dose 5 mg/kg, route intravenous; settings: rat, in vivo, read-out: Volume of distribution
[3] = Evaluated for half-life after iv administration of 1 mg/kg to male Sprague-Dawley rats in plasma; format: ADME, organism-based; parameters: dose 1 mg/kg, route intravenous; settings: rat
[4] = Evaluated for half-life after iv administration of 5 mg/kg to male Sprague-Dawley rats in brain; format: ADME, organism-based; parameters: dose 5 mg/kg, route intravenous; settings: rat
[5] = Evaluated for half-life after iv administration of 5 mg/kg to male Sprague-Dawley rats in plasma; format: ADME, organism-based; parameters: dose 5 mg/kg, route intravenous; settings: rat
[6] = Evaluated for plasma clearance after iv administration of 5 mg/kg to male Sprague-Dawley rats; format: ADME, organism-based; parameters: dose 5 mg/kg, route intravenous; settings: rat
[7] = Evaluated for AUC after iv administration of 1 mg/kg to male Sprague-Dawley rats in plasma; format: ADME, organism-based; parameters: dose 1 mg/kg, route intravenous; settings: rat
[8] = Evaluated for AUC after iv administration of 5 mg/kg to male Sprague-Dawley rats in brain; format: ADME, organism-based; parameters: dose 5 mg/kg, route intravenous; settings: rat
[9] = Evaluated for AUC after iv administration of 5 mg/kg to male Sprague-Dawley rats in plasma; format: ADME, organism-based; parameters: dose 5 mg/kg, route intravenous; settings: rat
HEK293 [10] = assay: Tested for the effect on whole cell maxi-K current in HEK 293 cells at 10 nM; format: functional, Homo sapiens
HEK293 [11] = assay: Tested for the effect on whole cell maxi-K current in HEK 293 cells at 100 nM; format: functional, Homo sapiens; parameters: unit not given here
HEK293 [12] = assay: Tested for the effect on whole cell maxi-K current in HEK 293 cells at 1000 nM; format: functional, Homo sapiens
[13] = Ratio of brain AUC versus plasma AUC; format: ADME, cell-free; settings: rat
[14] = target: Calcium-activated potassium channel subunit alpha-1 KCNMA1 (Homo sapiens) (UniProt Q12791); assay: Evaluation of maxi-K opening in Xenopus laevis oocytes injected with Hslo1 channels as percent of control current at 20 uM; settings: Oocyte

Chain of Calcium-activated potassium channel subunit alpha-1 KCNMA1 (Homo sapiens) (Q12791 whole entry, looked up): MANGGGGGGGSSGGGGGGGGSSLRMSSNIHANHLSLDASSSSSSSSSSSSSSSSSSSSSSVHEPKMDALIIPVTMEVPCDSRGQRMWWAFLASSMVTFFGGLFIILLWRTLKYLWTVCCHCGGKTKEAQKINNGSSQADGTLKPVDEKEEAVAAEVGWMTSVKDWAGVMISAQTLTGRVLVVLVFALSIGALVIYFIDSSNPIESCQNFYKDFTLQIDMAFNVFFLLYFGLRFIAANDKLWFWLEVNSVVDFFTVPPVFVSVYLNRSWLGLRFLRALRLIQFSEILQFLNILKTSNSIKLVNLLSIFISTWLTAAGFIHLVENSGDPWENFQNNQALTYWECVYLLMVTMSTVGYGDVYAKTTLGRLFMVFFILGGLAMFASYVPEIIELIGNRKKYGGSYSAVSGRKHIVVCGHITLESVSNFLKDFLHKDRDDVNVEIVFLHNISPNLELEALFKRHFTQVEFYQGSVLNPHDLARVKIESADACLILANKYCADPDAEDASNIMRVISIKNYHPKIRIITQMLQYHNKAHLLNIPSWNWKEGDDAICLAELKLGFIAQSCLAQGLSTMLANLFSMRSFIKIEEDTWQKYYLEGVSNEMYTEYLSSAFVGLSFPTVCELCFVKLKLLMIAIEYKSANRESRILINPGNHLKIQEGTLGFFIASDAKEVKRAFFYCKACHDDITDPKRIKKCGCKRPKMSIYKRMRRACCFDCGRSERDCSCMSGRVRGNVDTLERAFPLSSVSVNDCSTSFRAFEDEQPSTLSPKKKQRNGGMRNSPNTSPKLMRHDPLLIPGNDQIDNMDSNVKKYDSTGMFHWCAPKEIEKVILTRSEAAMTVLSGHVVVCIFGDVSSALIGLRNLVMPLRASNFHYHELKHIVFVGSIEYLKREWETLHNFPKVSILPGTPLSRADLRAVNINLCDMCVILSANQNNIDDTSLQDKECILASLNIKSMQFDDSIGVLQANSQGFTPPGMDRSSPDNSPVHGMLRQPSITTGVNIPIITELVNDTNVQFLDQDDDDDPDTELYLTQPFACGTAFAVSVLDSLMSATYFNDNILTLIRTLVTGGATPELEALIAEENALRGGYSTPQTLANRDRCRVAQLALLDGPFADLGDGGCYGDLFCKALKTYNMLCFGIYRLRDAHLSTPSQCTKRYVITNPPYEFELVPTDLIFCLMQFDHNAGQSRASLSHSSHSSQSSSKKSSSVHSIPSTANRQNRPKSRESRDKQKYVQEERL

Compound: O=C1Nc2ccccc2C1(F)c1ccccc1 (stereo not drawn)
- remaining activity at 20 µM [14]: 100%

Compound: COc1ccc(Cl)cc1C1(F)C(=O)Nc2c(C(F)(F)F)cccc21 (stereo not drawn)
- Maxi-K current (HEK293 [11]): 131.9 and 169.6

Compound: COc1ccc(Cl)cc1[C@@]1(F)C(=O)Nc2cc(C(F)(F)F)ccc21
- Maxi-K current (HEK293 [10]): 105
- Maxi-K current (HEK293 [11]): 164.4
- Maxi-K current (HEK293 [12]): 205.3

Second part, led by results:

- remaining activity at 20 µM [1]: 107%
Compound: O=C1Nc2cc(C(F)(F)F)ccc2C1(F)c1ccccc1 (stereo not drawn)

- Vd [2]: 5.8 L/kg
- half-life [3]: 1.8 h
- half-life [4]: 1.6 h
- half-life [5]: 1.9 h
- clearance [6]: 3.09 L/h/kg
- AUC [7]: 0.32 µg·h/mL
- AUC [8]: 28.8 µg·h/mL
- AUC [9]: 3 µg·h/mL
- Kp [13]: 9.6
Compound: COc1ccc(Cl)cc1[C@]1(F)C(=O)Nc2cc(C(F)(F)F)ccc21 [FLINDOKALNER]
- Maxi-K current (HEK293 [10]): 127.8
- Maxi-K current (HEK293 [11]): 185.3
- Maxi-K current (HEK293 [12]): 247.4
